Data on two molecules can be found in BindingDB's records for doi:10.1021/jm100478y (University of North Carolina at Chapel Hill, 2010).

Bounds are passed on as bounds.

The target of this test is T1, Histone-lysine N-methyltransferase EHMT2 (Homo sapiens, UniProt Q96KQ7).
T1 sequence (Q96KQ7 whole entry): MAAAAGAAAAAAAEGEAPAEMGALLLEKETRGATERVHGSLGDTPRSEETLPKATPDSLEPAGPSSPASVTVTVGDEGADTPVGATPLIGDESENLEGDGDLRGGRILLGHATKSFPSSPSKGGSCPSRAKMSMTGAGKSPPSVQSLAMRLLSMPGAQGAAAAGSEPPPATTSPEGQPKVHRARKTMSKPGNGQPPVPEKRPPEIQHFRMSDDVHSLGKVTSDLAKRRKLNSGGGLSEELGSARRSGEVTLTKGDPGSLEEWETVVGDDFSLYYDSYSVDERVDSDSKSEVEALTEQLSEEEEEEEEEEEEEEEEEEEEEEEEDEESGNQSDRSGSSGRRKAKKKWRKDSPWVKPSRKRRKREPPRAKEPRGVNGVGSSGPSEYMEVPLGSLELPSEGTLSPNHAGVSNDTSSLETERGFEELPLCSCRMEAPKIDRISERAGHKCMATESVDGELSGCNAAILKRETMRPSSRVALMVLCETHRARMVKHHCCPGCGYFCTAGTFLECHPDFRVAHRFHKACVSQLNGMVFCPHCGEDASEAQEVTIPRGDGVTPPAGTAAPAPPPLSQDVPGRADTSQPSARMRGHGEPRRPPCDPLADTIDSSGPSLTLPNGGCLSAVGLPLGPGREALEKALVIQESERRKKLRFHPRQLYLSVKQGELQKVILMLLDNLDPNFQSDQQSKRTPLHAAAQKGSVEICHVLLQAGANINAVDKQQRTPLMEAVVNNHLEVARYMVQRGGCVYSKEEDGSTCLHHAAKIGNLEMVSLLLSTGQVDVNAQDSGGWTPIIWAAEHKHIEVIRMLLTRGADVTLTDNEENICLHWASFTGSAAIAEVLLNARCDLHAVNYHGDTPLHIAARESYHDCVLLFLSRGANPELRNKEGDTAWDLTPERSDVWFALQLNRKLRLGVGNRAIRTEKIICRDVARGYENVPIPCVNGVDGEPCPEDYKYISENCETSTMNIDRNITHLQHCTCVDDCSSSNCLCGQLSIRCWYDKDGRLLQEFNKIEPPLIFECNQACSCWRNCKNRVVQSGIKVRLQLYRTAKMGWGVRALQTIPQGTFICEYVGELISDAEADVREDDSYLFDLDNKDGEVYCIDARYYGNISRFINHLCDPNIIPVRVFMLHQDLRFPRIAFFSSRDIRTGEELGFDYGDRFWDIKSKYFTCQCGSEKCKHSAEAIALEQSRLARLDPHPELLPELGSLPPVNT
The test is described as follows: Inhibition of methyl transferase activity of G9a assessed as inhibition of H3K9 methylation by chemiluminescence based oxygen tunneling assay.

As usually defined, the IC50 is the concentration at which inhibition is half-maximal. On to `COc1cc2nc(N3CCCN(C)CC3)nc(NC3CCOCC3)c2cc1OC` [6,7-dimethoxy-2-(4-methyl-1,4-diazepan-1-yl)-N-(tetrahydro-2H-pyran-4-yl)quinazolin-4-amine], for which the concentration for half-maximal inhibition (IC50) is more than 10 µM.
Take `COc1cc2nc(N3CCCN(C)CC3)nc(NC3CCNCC3)c2cc1OC` [6,7-Dimethoxy-2-(4-methyl-1,4-diazepan-1-yl)-N-(piperidin-4-yl)quinazolin-4-amine]: the IC50 is more than 10 µM.
